Source: patent publication US20140120232A1, “ACID TASTE/ACID SMELL-REDUCING AGENT” (T. HASEGAWA CO., LTD., priority 2011, published 2014)

Assay: Sensory evaluation of orange juice containing the agent
Conditions: ten panels
Experimental: Sensory evaluation of each drink was carried out by ten panels. […] The piercing aroma characteristic to aldehydes is a characteristic aroma common to every aldehyde and refers to an irritant off-smell giving an image of deteriorated oils and fats, soap, metals, Houttuynia cordata, etc. The judgment of smell was performed by comparing the effects at different concentrations of the acid taste and/or acid smell-reducing agent, and a concentration giving the highest acid taste/acid smell quality was selected.
To commercially available 100% orange juice was added (Z,Z)-4,7-tridecadienal as the acid taste and/or acid smell-reducing agent of the present invention in concentrations shown in the following Table 12 to give orange juice containing the agent, followed by sensory evaluation as in Example 1.

In the case of `CCCCC/C=C\C/C=C\CCC=O` [(Z,Z)-4,7-tridecadienal], the “A: number of panels, acid taste/acid smell extreme and cause irritation” value (0.005 ppt) is reported as 10, the “B: number of panels, acid taste/acid smell slightly strong and slightly cause irritation” value (0.005 ppt) is reported as 0 and the “C: number of panels, acid taste/acid smell slightly unpleasant” value (0.005 ppt) is reported as 0. For the same compound, the “Flavor judgment: number of panels who judged acid taste/acid smell quality the highest” value (0.005 ppt) was 0, the “N: number of panels, irritation of acid reduced to give a mild acid taste” value (0.005 ppt) was 0 and the “X: number of panels, acid taste reduced but piercing odor characteristic to aldehydes unpleasant” value (0.005 ppt) was 0. The “A: number of panels, acid taste/acid smell extreme and cause irritation” value (0.02 ppt) was 9, the “B: number of panels, acid taste/acid smell slightly strong and slightly cause irritation” value (0.02 ppt) was 1 and the “C: number of panels, acid taste/acid smell slightly unpleasant” value (0.02 ppt) was 0. For the same compound, the “Flavor judgment: number of panels who judged acid taste/acid smell quality the highest” value (0.02 ppt) was 0, the “N: number of panels, irritation of acid reduced to give a mild acid taste” value (0.02 ppt) was 0 and the “X: number of panels, acid taste reduced but piercing odor characteristic to aldehydes unpleasant” value (0.02 ppt) was 0. For the same compound, the “A: number of panels, acid taste/acid smell extreme and cause irritation” value (0.1 ppt) was 8, the “B: number of panels, acid taste/acid smell slightly strong and slightly cause irritation” value (0.1 ppt) was 1 and the “C: number of panels, acid taste/acid smell slightly unpleasant” value (0.1 ppt) was 1. The “Flavor judgment: number of panels who judged acid taste/acid smell quality the highest” value (0.1 ppt) was 0, the “N: number of panels, irritation of acid reduced to give a mild acid taste” value (0.1 ppt) was 0 and the “X: number of panels, acid taste reduced but piercing odor characteristic to aldehydes unpleasant” value (0.1 ppt) was 0. The “A: number of panels, acid taste/acid smell extreme and cause irritation” value (0.2 ppt) was 6, the “B: number of panels, acid taste/acid smell slightly strong and slightly cause irritation” value (0.2 ppt) was 2 and the “C: number of panels, acid taste/acid smell slightly unpleasant” value (0.2 ppt) was 2. For the same compound, the “Flavor judgment: number of panels who judged acid taste/acid smell quality the highest” value (0.2 ppt) was 0, the “N: number of panels, irritation of acid reduced to give a mild acid taste” value (0.2 ppt) was 0 and the “X: number of panels, acid taste reduced but piercing odor characteristic to aldehydes unpleasant” value (0.2 ppt) was 0. For the same compound, the “A: number of panels, acid taste/acid smell extreme and cause irritation” value (0.5 ppt) was 0, the “B: number of panels, acid taste/acid smell slightly strong and slightly cause irritation” value (0.5 ppt) was 2 and the “C: number of panels, acid taste/acid smell slightly unpleasant” value (0.5 ppt) was 2. For the same compound, the “Flavor judgment: number of panels who judged acid taste/acid smell quality the highest” value (0.5 ppt) was 1, the “N: number of panels, irritation of acid reduced to give a mild acid taste” value (0.5 ppt) was 6 and the “X: number of panels, acid taste reduced but piercing odor characteristic to aldehydes unpleasant” value (0.5 ppt) was 0. The “A: number of panels, acid taste/acid smell extreme and cause irritation” value (1 ppb) was 0, the “B: number of panels, acid taste/acid smell slightly strong and slightly cause irritation” value (1 ppb) was 0 and the “C: number of panels, acid taste/acid smell slightly unpleasant” value (1 ppb) was 2. For the same compound, the “Flavor judgment: number of panels who judged acid taste/acid smell quality the highest” value (1 ppb) was 0, the “N: number of panels, irritation of acid reduced to give a mild acid taste” value (1 ppb) was 4 and the “X: number of panels, acid taste reduced but piercing odor characteristic to aldehydes unpleasant” value (1 ppb) was 4. For the same compound, the “A: number of panels, acid taste/acid smell extreme and cause irritation” value (1 ppt) was 0, the “B: number of panels, acid taste/acid smell slightly strong and slightly cause irritation” value (1 ppt) was 2 and the “C: number of panels, acid taste/acid smell slightly unpleasant” value (1 ppt) was 2. The “Flavor judgment: number of panels who judged acid taste/acid smell quality the highest” value (1 ppt) was 1, the “N: number of panels, irritation of acid reduced to give a mild acid taste” value (1 ppt) was 6 and the “X: number of panels, acid taste reduced but piercing odor characteristic to aldehydes unpleasant” value (1 ppt) was 0. For the same compound, the “A: number of panels, acid taste/acid smell extreme and cause irritation” value (5 ppt) was 0, the “B: number of panels, acid taste/acid smell slightly strong and slightly cause irritation” value (5 ppt) was 1 and the “C: number of panels, acid taste/acid smell slightly unpleasant” value (5 ppt) was 2. For the same compound, the “Flavor judgment: number of panels who judged acid taste/acid smell quality the highest” value (5 ppt) was 4, the “N: number of panels, irritation of acid reduced to give a mild acid taste” value (5 ppt) was 7 and the “X: number of panels, acid taste reduced but piercing odor characteristic to aldehydes unpleasant” value (5 ppt) was 0. For the same compound, the “A: number of panels, acid taste/acid smell extreme and cause irritation” value (10 ppb) was 0, the “B: number of panels, acid taste/acid smell slightly strong and slightly cause irritation” value (10 ppb) was 0 and the “C: number of panels, acid taste/acid smell slightly unpleasant” value (10 ppb) was 1. For the same compound, the “Flavor judgment: number of panels who judged acid taste/acid smell quality the highest” value (10 ppb) was 0, the “N: number of panels, irritation of acid reduced to give a mild acid taste” value (10 ppb) was 3 and the “X: number of panels, acid taste reduced but piercing odor characteristic to aldehydes unpleasant” value (10 ppb) was 6. The “A: number of panels, acid taste/acid smell extreme and cause irritation” value (20 ppt) was 0, the “B: number of panels, acid taste/acid smell slightly strong and slightly cause irritation” value (20 ppt) was 0 and the “C: number of panels, acid taste/acid smell slightly unpleasant” value (20 ppt) was 3. For the same compound, the “Flavor judgment: number of panels who judged acid taste/acid smell quality the highest” value (20 ppt) was 4, the “N: number of panels, irritation of acid reduced to give a mild acid taste” value (20 ppt) was 7 and the “X: number of panels, acid taste reduced but piercing odor characteristic to aldehydes unpleasant” value (20 ppt) was 0. For the same compound, the “A: number of panels, acid taste/acid smell extreme and cause irritation” value (50 ppb) was 0, the “B: number of panels, acid taste/acid smell slightly strong and slightly cause irritation” value (50 ppb) was 0 and the “C: number of panels, acid taste/acid smell slightly unpleasant” value (50 ppb) was 1. The “Flavor judgment: number of panels who judged acid taste/acid smell quality the highest” value (50 ppb) was 0, the “N: number of panels, irritation of acid reduced to give a mild acid taste” value (50 ppb) was 2 and the “X: number of panels, acid taste reduced but piercing odor characteristic to aldehydes unpleasant” value (50 ppb) was 7. For the same compound, the “A: number of panels, acid taste/acid smell extreme and cause irritation” value (100 ppt) was 0, the “B: number of panels, acid taste/acid smell slightly strong and slightly cause irritation” value (100 ppt) was 0 and the “C: number of panels, acid taste/acid smell slightly unpleasant” value (100 ppt) was 4. For the same compound, the “Flavor judgment: number of panels who judged acid taste/acid smell quality the highest” value (100 ppt) was 0, the “N: number of panels, irritation of acid reduced to give a mild acid taste” value (100 ppt) was 4 and the “X: number of panels, acid taste reduced but piercing odor characteristic to aldehydes unpleasant” value (100 ppt) was 2. The “A: number of panels, acid taste/acid smell extreme and cause irritation” value (500 ppt) was 0, the “B: number of panels, acid taste/acid smell slightly strong and slightly cause irritation” value (500 ppt) was 0 and the “C: number of panels, acid taste/acid smell slightly unpleasant” value (500 ppt) was 3. For the same compound, the “Flavor judgment: number of panels who judged acid taste/acid smell quality the highest” value (500 ppt) was 0, the “N: number of panels, irritation of acid reduced to give a mild acid taste” value (500 ppt) was 4 and the “X: number of panels, acid taste reduced but piercing odor characteristic to aldehydes unpleasant” value (500 ppt) was 3.
